Source: ChEMBL document CHEMBL1149389 (Bioorg Med Chem Lett, 2006)
pKi: −log10 of the molar value.

Key:
[1] = target: D(2) dopamine receptor (Homo sapiens, UniProt P14416); assay: Binding affinity to human cloned dopamine D2 receptor
[2] = target: D(3) dopamine receptor (Homo sapiens, UniProt P35462); assay: Binding affinity to human cloned dopamine D3 receptor
[3] = system: Liver microsomes; assay: Metabolic stability in rat liver microsomes; format: ADME, Microsome
[4] = system: Liver microsomes; assay: Metabolic stability in human liver microsomes; format: ADME, Microsome
[5] = system: Rattus norvegicus; assay: Antagonism of agonist-induced huddling deficits in orally administered rat; format: functional; details: po
[6] = Permeability across Caco-2 cell membrane; format: ADME, cell-based; details: human

D(3) dopamine receptor, sequence (P35462 whole entry): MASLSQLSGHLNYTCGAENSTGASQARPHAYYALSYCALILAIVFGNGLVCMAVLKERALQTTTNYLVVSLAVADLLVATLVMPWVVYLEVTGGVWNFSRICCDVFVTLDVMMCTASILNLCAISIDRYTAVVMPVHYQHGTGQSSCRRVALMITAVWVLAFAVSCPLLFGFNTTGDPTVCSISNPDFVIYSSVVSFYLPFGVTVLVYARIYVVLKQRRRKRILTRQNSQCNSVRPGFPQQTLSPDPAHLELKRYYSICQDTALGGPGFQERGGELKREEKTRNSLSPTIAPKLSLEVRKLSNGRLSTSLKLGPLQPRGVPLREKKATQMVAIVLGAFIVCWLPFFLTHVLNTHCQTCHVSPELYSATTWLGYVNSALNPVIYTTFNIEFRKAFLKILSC
D(2) dopamine receptor, sequence (P14416 whole entry): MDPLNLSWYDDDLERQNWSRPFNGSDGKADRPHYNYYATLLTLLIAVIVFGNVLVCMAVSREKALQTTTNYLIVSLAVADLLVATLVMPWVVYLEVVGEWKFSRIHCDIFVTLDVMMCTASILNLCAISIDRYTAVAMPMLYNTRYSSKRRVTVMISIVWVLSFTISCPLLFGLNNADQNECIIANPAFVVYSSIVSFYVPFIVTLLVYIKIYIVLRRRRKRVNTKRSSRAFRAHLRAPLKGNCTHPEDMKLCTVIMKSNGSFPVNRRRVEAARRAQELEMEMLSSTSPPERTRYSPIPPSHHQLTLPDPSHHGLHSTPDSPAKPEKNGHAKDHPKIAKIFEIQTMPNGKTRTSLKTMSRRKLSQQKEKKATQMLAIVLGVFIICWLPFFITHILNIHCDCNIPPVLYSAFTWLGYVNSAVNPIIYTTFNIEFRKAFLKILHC

Compound | pKi [1] | pKi [2] | other results
CC(C)(C)c1nc(N2CCN(CCCCn3ccc(C4CCCCC4)nc3=O)CC2)cc(C(F)(F)F)n1 | 6.52 |  | 
CC(C)(C)c1nc(N2CCN(CCCCn3cccnc3=O)CC2)cc(C(F)(F)F)n1 | 6.35 | 7.89 | 
CC(C)(C)c1nc(N2CCN(CCCCn3cc(F)c(=O)[nH]c3=O)CC2)cc(C(F)(F)F)n1 | 6.22 |  | 
CC(C)(C)c1nc(N2CCN(CCCCn3ccc(-c4ccccc4)nc3=O)CC2)cc(C(F)(F)F)n1 | 6.77 |  | 
CC(C)(C)c1nc(N2CCN(CCCCn3cc(Cl)c(=O)[nH]c3=O)CC2)cc(C(F)(F)F)n1 | 6.66 |  | 
CC(C)(C)c1nc(N2CCN(CCCCn3ccc(N4CCC4)nc3=O)CC2)cc(C(F)(F)F)n1 | 7.09 | 8.36 | 
CC(C)(C)c1nc(N2CCN(CCCCn3cc(C(F)(F)F)c(=O)[nH]c3=O)CC2)cc(C(F)(F)F)n1 | 6.19 |  | 
CC(C)(C)c1nc(N2CCN(CCCCn3ccc(N4CCCCC4)nc3=O)CC2)cc(C(F)(F)F)n1 | 7.05 | 8.47 | 
CC(C)(C)c1nc(N2CCN(CCCCn3ccc(C4CCC4)nc3=O)CC2)cc(C(F)(F)F)n1 | 6.56 |  | 
CCc1cn(CCCCN2CCN(c3cc(C(F)(F)F)nc(C(C)(C)C)n3)CC2)c(=O)[nH]c1=O | 6.83 | 8.77 | 
CCOc1ccn(CCCCN2CCN(c3cc(C(F)(F)F)nc(C(C)(C)C)n3)CC2)c(=O)n1 | 6.54 |  | 
Cc1cn(CCCCN2CCN(c3cc(C(F)(F)F)nc(C(C)(C)C)n3)CC2)c(=O)[nH]c1=O | 6.49 |  | Stability [3]: > 97%; Stability [4]: > 97%; ED50 [5]: 6.1 mg/kg; Papp [6]: 1.94 ×10⁻⁶ cm/s
CC(C)(C)c1nc(N2CCN(CCCCn3cc(C#N)c(=O)[nH]c3=O)CC2)cc(C(F)(F)F)n1 | 6.33 |  | 
CC(C)(C)c1nc(N2CCN(CCCCn3ccc(C4CC4)nc3=O)CC2)cc(C(F)(F)F)n1 | 6.81 | 8.43 | 
Cn1c(=O)ccn(CCCCN2CCN(c3cc(C(F)(F)F)nc(C(C)(C)C)n3)CC2)c1=O | 6.21 | 7.93 | 
CC(C)(C)c1ccn(CCCCN2CCN(c3cc(C(F)(F)F)nc(C(C)(C)C)n3)CC2)c(=O)n1 | 6.67 |  | 
Cc1cn(CCCCN2CCN(c3cc(C(F)(F)F)nc(C(C)(C)C)n3)CC2)c(=O)n(C)c1=O | 6.45 | 7.98 | 
CC(C)(C)c1nc(N2CCN(CCCCn3ccc(=O)[nH]c3=O)CC2)cc(C(F)(F)F)n1 | 6.71 |  | 
CC(C)(C)c1nc(N2CCN(CCCSc3nccc(O)n3)CC2)cc(C(F)(F)F)n1 [ABT-925] | 6.45 |  | 
Cc1ccn(CCCCN2CCN(c3cc(C(F)(F)F)nc(C(C)(C)C)n3)CC2)c(=O)n1 | 6.51 |  | 
